Measurements taken from patent US20240150321A1, “PYRAZOLYLSULFONAMIDE COMPOUNDS AND THEIR USE IN THERAPY” (HOTSPOT THERAPEUTICS, INC., priority 2022, published 2024).
Read-outs that look alike come from different tables or passages of the source.

How the values were obtained:
[1] = molecular target: Avi-tagged FL MALT-1 (Homo sapiens (Human), UniProt Q9UDY8); assay: MALT-1 Fluorogenic Peptide Cleavage Assay (MALT1 inhibition assay); type: biochemical; details: Ac-LRSR-AMC peptide substrate, 30 min pre-incubation, 90 min reaction at room temperature
Method in brief: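 Cleavage of Ac-LRSR-AMC, read as fluorescence at 342/441 nm after 90 min at room temperature, with substrate working stocks of 50 μM (Km) or 280 μM (10×Km). Enzyme, Avi-tagged full-length MALT-1 (40 nM stock), was first pre-incubated 30 min with compound in citrate/HEPES pH 6.89 buffer with TCEP, EDTA, CHAPS and 2% DMSO; IC50 fitted from normalised % inhibition.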

[2] = system: NF-kB reporter in Jurkat cells; assay: NF-kB reporter assay in Jurkat cells stimulated with aCD3/aCD28/PMA; type: cell-based; details: read-out: NF-kB Reporter Assay IC50
Method in brief: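 Luminescence (One-Glo) from the NF-kB reporter yielded IC50 values. Stimulation lasted 4 h at 37° C with aCD3, aCD28 and PMA (final 5, 5 and 0.03 […]), after 1 h compound pre-exposure of 25,000 Jurkat cells per well in serum-free RPMI.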

[3] = Homo sapiens, Jurkat cells, 1 hr compound pre-incubation, aCD3/aCD28/PMA stimulation 4 hr, One-Glo readout
[4] = Jurkat cells, 1 hr compound pre-incubation, aCD3/aCD28/PMA stimulation 4 hr, One-Glo readout

Sequence of Avi-tagged FL MALT-1 (Q9UDY8 whole entry): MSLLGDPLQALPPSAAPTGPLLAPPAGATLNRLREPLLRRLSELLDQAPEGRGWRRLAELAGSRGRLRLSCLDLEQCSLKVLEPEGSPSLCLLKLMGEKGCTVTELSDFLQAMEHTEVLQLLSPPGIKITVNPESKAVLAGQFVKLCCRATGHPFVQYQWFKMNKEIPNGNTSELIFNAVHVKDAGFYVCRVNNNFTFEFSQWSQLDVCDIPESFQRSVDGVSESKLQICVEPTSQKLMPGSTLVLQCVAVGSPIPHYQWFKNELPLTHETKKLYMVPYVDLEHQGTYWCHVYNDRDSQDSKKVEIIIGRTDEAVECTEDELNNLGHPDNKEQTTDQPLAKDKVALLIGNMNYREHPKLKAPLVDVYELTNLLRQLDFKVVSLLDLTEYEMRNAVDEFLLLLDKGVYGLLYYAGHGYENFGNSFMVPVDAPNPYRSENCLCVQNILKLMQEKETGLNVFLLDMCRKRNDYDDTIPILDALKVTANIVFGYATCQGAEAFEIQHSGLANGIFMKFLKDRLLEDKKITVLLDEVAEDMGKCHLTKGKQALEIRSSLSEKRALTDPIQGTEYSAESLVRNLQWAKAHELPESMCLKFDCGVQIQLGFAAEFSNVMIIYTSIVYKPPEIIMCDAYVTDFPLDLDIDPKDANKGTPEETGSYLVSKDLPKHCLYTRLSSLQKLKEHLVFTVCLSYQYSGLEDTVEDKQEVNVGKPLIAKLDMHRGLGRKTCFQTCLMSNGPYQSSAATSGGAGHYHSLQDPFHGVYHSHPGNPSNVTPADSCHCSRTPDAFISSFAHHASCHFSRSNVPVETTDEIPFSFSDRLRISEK

SMILES	IC50 [1]	IC50 [2, 3]	IC50 ([2]; Homo sapiens, Jurkat)	IC50 [2, 4]
COc1ccc2cnn(C)c2c1NS(=O)(=O)c1cnn(-c2cc(N3CC4(CC4)C3)ccn2)c1 [Compound I-371, 1-(4-(5-azaspiro[2.3]hexan-5-yl)pyridin-2-yl)-N-(6-methoxy-1-methyl-1H-indazol-7-yl)-1H-pyrazole-4-sulfonamide]	> 2500 nM	< 400 nM		
Cc1n[nH]c2cccc(NS(=O)(=O)c3cnn(-c4ccc(C5CC5)cn4)c3)c12 [Compound I-106, 1-(5-cyclopropylpyridin-2-yl)-N-(3-methyl-1H-indazol-4-yl)-1H-pyrazole-4-sulfonamide]	> 2500 nM	< 400 nM		
[2H]c1cnc(-n2cc(S(=O)(=O)Nc3cccc4cnn(C([2H])([2H])[2H])c34)cn2)cc1C(F)(F)F [Compound I-338, N-(1-(methyl-d3)-1H-indazol-7-yl)-1-(4-(trifluoromethyl)pyridin-2-yl-5-d)-1H-pyrazole-4-sulfonamide]	≤ 400 nM	< 400 nM		
COC1(c2ccnc(-n3cc(S(=O)(=O)Nc4cccc5[nH]nc(C)c45)cn3)c2)COC1 [Compound I-244, 1-(4-(3-methoxyoxetan-3-yl)pyridin-2-yl)-N-(3-methyl-1H-indazol-4-yl)-1H-pyrazole-4-sulfonamide]	> 2500 nM	< 400 nM		
Cn1ncc2cccc(NS(=O)(=O)c3cnn(-c4cc(N5CC6CC5C6)ccn4)c3)c21 [Compound I-409, 1-(4-{2-azabicyclo[2.1.1]hexan-2-yl}pyridin-2-yl)-N-(1-methylindazol-7-yl)pyrazole-4-sulfonamide]	> 2500 nM	< 400 nM		
CN1CCn2ncc(-n3cc(S(=O)(=O)Nc4cccc5cnn(C)c45)cn3)c2C1 [Compound I-466, 1-{5-methyl-4H,6H,7H-pyrazolo[1,5-a]pyrazin-3-yl}-N-(1-methylindazol-7-yl)pyrazole-4-sulfonamide]	> 2500 nM	> 2500 nM		
COc1ccc2cnn(C)c2c1NS(=O)(=O)c1cnn(-c2cc(C3(F)CCC3)ccn2)c1 [Compound I-144, 1-(4-(1-fluorocyclobutyl)pyridin-2-yl)-N-(6-methoxy-1-methyl-1H-indazol-7-yl)-1H-pyrazole-4-sulfonamide]	≤ 400 nM		< 400 nM	
CN1CC[C@H](n2cc(S(=O)(=O)Nc3cccc4cnn(C)c34)cn2)CC1=O [Compound I-415]	> 2500 nM	> 2500 nM		
Cc1n[nH]c2cccc(NS(=O)(=O)c3cnn(-c4cc(C(C)(C)O)ccn4)c3)c12 [Compound I-245]	> 2500 nM			< 400 nM
Cn1ncc2cccc(NS(=O)(=O)c3cnn(-c4cnn5c4OCCC5)c3)c21 [Compound I-465, N-(1-methylindazol-7-yl)-1-{5H,6H,7H-pyrazolo[3,2-b][1,3]oxazin-3-yl}pyrazole-4-sulfonamide]	> 2500 nM	1000 to 2500 nM		
CN1C[C@H](n2cc(S(=O)(=O)Nc3cccc4cnn(C)c34)cn2)CCC1=O [Compound I-350]	> 2500 nM	> 2500 nM		
CN(C)c1ccc2cnn(C)c2c1NS(=O)(=O)c1cnn(-c2ccnc(C(F)(F)F)c2)c1 [Compound I-7, N-(6-(Dimethylamino)-1-Methyl-1H-Indazol-7-yl)-1-(2-(Trifluoromethyl)Pyridin-4-yl)-1H-Pyrazole-4-Sulfonamide]	≤ 400 nM	400 to 1000 nM		
COc1ccc2cnn(C)c2c1NS(=O)(=O)c1cnn(-c2cc(C3(C#N)CCCC3)ccn2)c1 [Compound I-449, 1-(4-(1-cyanocyclopentyl)pyridin-2-yl)-N-(6-methoxy-1-methyl-1H-indazol-7-yl)-1H-pyrazole-4-sulfonamide]	1000 to 2500 nM	< 400 nM		
Cc1n[nH]c2cccc(N(C)S(=O)(=O)c3cnn(-c4ccnc(C(F)(F)F)c4)c3)c12 [Compound I-64, N-Methyl-N-(3-Methyl-1H-Indazol-4-yl)-1-(2-(Trifluoromethyl)Pyridin-4-yl)-1H-Pyrazole-4-Sulfonamide]	1000 to 2500 nM	> 2500 nM		
O=S(=O)(c1cnn(-c2cc(C(F)(F)F)ccn2)c1)N1CCCn2ncc3cccc1c32 [Compound I-379, 1-((1-(4-(trifluoromethyl)pyridin-2-yl)-1H-pyrazol-4-yl)sulfonyl)-1,2,3,4-tetrahydro-[1,4]diazepino[3,2,1-hi]indazole]	> 2500 nM		> 2500 nM	
CO[C@]1(c2ccnc(-n3cc(S(=O)(=O)Nc4cccc5cnn(C)c45)cn3)c2)CCOC1 [Compound I-306]	> 2500 nM	< 400 nM		
Cn1ncc2cccc(NS(=O)(=O)c3cnn(-c4cc(C5(O)CCOC5)ccn4)c3)c21 (stereo in doubt) [Compound I-310, (S)-1-(4-(3-hydroxytetrahydrofuran-3-yl)pyridin-2-yl)-N-(1-methyl-1H-indazol-7-yl)-1H-pyrazole-4-sulfonamide]	> 2500 nM	< 400 nM		

SMILES	IC50 [1]	IC50 [2, 3]	IC50 ([2]; Homo sapiens, Jurkat)	IC50 [2, 4]
COc1ccc2cnn(C)c2c1NS(=O)(=O)c1cnn(-c2cc(N3CC[C@H](F)C3)ccn2)c1 [Compound I-422]	> 2500 nM	< 400 nM		
C[C@@H]1CN(c2ccnc(-n3cc(S(=O)(=O)Nc4cccc5cnn(C)c45)cn3)c2)C(=O)N1C [Compound I-347, (R)-1-(4-(3,4-dimethyl-2-oxoimidazolidin-1-yl)pyridin-2-yl)-N-(1-methyl-1H-indazol-7-yl)-1H-pyrazole-4-sulfonamide]	> 2500 nM	< 400 nM		
COC1(c2ccnc(-n3cc(S(=O)(=O)Nc4cccc5cnn(C)c45)cn3)c2)CC(C)C1 (centres unmarked) [Compound I-363, 1-(4-(1-methoxy-3-methylcyclobutyl)pyridin-2-yl)-N-(1-methyl-1H-indazol-7-yl)-1H-pyrazole-4-sulfonamide]	> 2500 nM			< 400 nM
Cn1ncc2cccc(NS(=O)(=O)c3cnn(-c4cc(C(C)(C)F)ccn4)c3)c21 [Compound I-113, 1-(4-(2-fluoropropan-2-yl)pyridin-2-yl)-N-(1-methyl-1H-indazol-7-yl)-1H-pyrazole-4-sulfonamide]	> 2500 nM	< 400 nM		
Cn1ncc2cccc(NS(=O)(=O)c3cnn(-c4cc(N5CC(F)(F)C5)ccn4)c3)c21 [Compound I-439, 1-[4-(3,3-difluoroazetidin-1-yl)pyridin-2-yl]-N-(1-methylindazol-7-yl) pyrazole-4-sulfonamide]	> 2500 nM	< 400 nM		
Cn1ncc2cccc(NS(=O)(=O)c3cnn(-c4ccnc(C(F)(F)F)c4)c3)c21 [Compound I-16, N-(1-Methyl-1H-Indazol-7-yl)-1-(2-(Trifluoromethyl)Pyridin-4-yl)-1H-Pyrazole-4-Sulfonamidemide]	> 2500 nM	> 2500 nM		
Cn1ncc2cccc(NS(=O)(=O)c3cnn(-c4cnc5n4CCOC5)c3)c21 [Compound I-473, 1-(5,6-dihydro-8H-imidazo[2,1-c][1,4]oxazin-3-yl)-N-(1-methyl-1H-indazol-7-yl)-1H-pyrazole-4-sulfonamide]	> 2500 nM	> 2500 nM		
COc1ncc2cnn(C)c2c1NS(=O)(=O)c1cnn(-c2cc(N3CCC(C)(C)C3)ccn2)c1 [Compound I-425]	> 2500 nM	< 400 nM		
COc1ccc2cnn(C)c2c1NS(=O)(=O)c1cnn(-c2cnn3c2COCC3)c1 [Compound I-474, N-(6-methoxy-1-methylindazol-7-yl)-1-{4H,6H,7H-pyrazolo[3,2-c][1,4]oxazin-3-yl}pyrazole-4-sulfonamide]	1000 to 2500 nM	400 to 1000 nM		
CCc1ccc2cnn(C)c2c1NS(=O)(=O)c1cnn(-c2ccnc(C(F)(F)F)c2)c1 [Compound I-2, N-(6-Ethyl-1-Methyl-1H-Indazol-7-yl)-1-(2-(Trifluoromethyl) Pyridin-4-yl)-1H-Pyrazole-4-Sulfonamide]	≤ 400 nM	< 400 nM		
COc1ccc2nnn(C)c2c1NS(=O)(=O)c1cnn(-c2ccnc(C(F)(F)F)c2)c1 [Compound I-52]	> 2500 nM	1000 to 2500 nM		
COc1ccc2cnn(C)c2c1NS(=O)(=O)c1cnn(-c2cc(N3CC[C@@H](C)C3)ccn2)c1 [Compound I-403]	> 2500 nM	< 400 nM		
CCc1ccc2cnn(C)c2c1NS(=O)(=O)c1cnn(-c2ccnc(C(F)(F)F)c2)c1C [Compound I-30, N-(6-Ethyl-1-Methyl-1H-Indazol-7-yl)-5-Methyl-1-(2-(Trifluoromethyl)Pyridin-4-yl)-1H-Pyrazole-4-Sulfonamide]	400 to 1000 nM	1000 to 2500 nM		
CCc1ccc2cnn(C)c2c1NS(=O)(=O)c1cnn(-c2cc(Cl)ccn2)c1 [Compound I-36, 1-(4-Chloropyridin-2-yl)-N-(6-Ethyl-1-Methyl-1H-indazol-7-yl)-1H-Pyrazole-4-Sulfonamide]	≤ 400 nM	< 400 nM		
CCC(O)(CC)c1ccnc(-n2cc(S(=O)(=O)Nc3cccc4cnn(C)c34)cn2)c1 [Compound I-276]	> 2500 nM	< 400 nM		
COc1ccc2cnn(C)c2c1NS(=O)(=O)c1cnn(-c2cc(N3CCC(C)CC3)ccn2)c1 [Compound I-418]	> 2500 nM	< 400 nM		
COC1(c2ccnc(-n3cc(S(=O)(=O)Nc4cccc5cnn(C)c45)cn3)c2)CC(F)(F)C1 [Compound I-138, 1-(4-(3,3-difluoro-1-methoxycyclobutyl)pyridin-2-yl)-N-(1-methyl-1H-indazol-7-yl)-1H-pyrazole-4-sulfonamide]	> 2500 nM	< 400 nM		
